Entries after “also recorded” stand apart in the source; their conditions may differ.
How the values were obtained:
[1] = tested on: retinal ganglion cells (RGC); test: NMDA excitotoxicity mouse model: RGC count by retinal Flatmount; format: in vivo, C57BL/6)
Protocol: This study was for evaluating the effect of adeno-associated viral (AAV) vectors on retinal ganglion cell protection following damage caused via N-methyl-D-aspartate (NMDA) administration in the mouse. […] Groups 7 and 8 were added to test a higher concentration of MK-801. […] This study was conducted in wild type mice (Mus musculus, C57BL/6).
300 μL of the 5 mM NMDA stock was combined with 300 μL of sterile PBS and 1 μL as injected on Day 0 for a final concentration of 2.5 mM NMDA.
300 μL of the 5 mM NMDA stock as combined with 300 μL of sterile-filtered MK-801 and 1 μL was injected on Day 0 for a final concentration of 2.5 mM NMDA/100 μM MK-801.
300 μL of the 5 mM NMDA stock was combined with 300 μL of sterile PBS and 1 μL was injected on Day 0 for a final concentration of 2.5 mM NMDA.
On Day −28 or Day 0 based on the experimental design, mice were given buprenorphine 0.01-0.05 mg/kg subcutaneously (SQ). Animals were then tranquilized for the intravitreal injections with ketamine/xylazine or inhaled isoflurane and one drop of 0.5% proparacaine HCl was applied to both eyes. The conjunctiva was gently grasped with Dumont #4 forceps, and the injection was made using a 33 G needle and a Hamilton syringe. After dispensing the syringe contents, the syringe needle was slowly withdrawn. Following the injection procedure, 1 drop of Ofloxacin ophthalmic solution was applied topically to the ocular surface with eye lube.
Eyes were enucleated and immediately fixed in 4% paraformaldehyde in phosphate-buffered saline (PBS) and stored overnight at 4° C. The following day, the eyes were transferred to cold immunocytochemistry (ICC) buffer (PBS containing 0.5% BSA and 0.2% Tween 20) until processing. Using a dissecting microscope, the eye was carefully trimmed of extraneous tissue at the limbus and, using fine curved scissors, the anterior chamber was removed. Retinas in the eye cup were rinsed with cold ICC buffer. Eye cups were placed in cold ICC buffer containing 1/100 rat anti-CNP36 (Groups 3-6 only; resuspended at 0.5 mg/mL in PBS) for 3 hours at 4° C. Eye cups were then washed extensively and stained with 1/200 donkey anti-rat Cy3 and 1/1,000 DAPI for 2-3 hours at 4° C. Groups 1 and 2 were stained with 1/500 TUJ-1 and 1/1000 DAPI, while Groups 7 and 8 were incubated with 1/1,000 DAPI alone. Eye cups were washed extensively but gently with cold ICC buffer. Using fine curved scissors and an eyelash knife, the retina was detached from the optic nerve head and removed from the RPE/choroid. Radial cuts were then made toward the center and retinas were flat mounted, covered, and sealed. 2D fluorescent microscopy images were acquired using an Olympus Bx63 upright fluorescent microscope. […] Images at 20× were acquired in 4 quadrants and a central 248.1×325.7 μm region was analyzed for RGC counts using Olympus cellSens and ImageJ software.
Groups 1 and 2 were stained with DAPI and TUJ-1 and images were captured at 20× (FIG. 10A). RGCs were counted in four quadrants, and cells/mm2 were averaged across each group.
Groups 3-8 were stained for DAPI and four images were captured for each retina at 20× approximately 600 μm from the optic nerve head. RGCs were counted in a central 248.1×325.7 μm region and cells/mm2 were averaged over each group (FIG. 10C).
The statistical analyses were performed on the Group 3-8 RGC data (one-way ANOVA followed by multiple comparisons using the Dunnett statistical hypothesis comparison).

[2] = tested on: retinal ganglion cells (RGC); test: NMDA excitotoxicity mouse model: RGC count by H&E histopathology; format: in vivo, C57BL/6); conditions: for RGC #/HPF (400X): H&E, single animals, Group 2
Protocol: This study was for evaluating the effect of adeno-associated viral (AAV) vectors on retinal ganglion cell protection following damage caused via N-methyl-D-aspartate (NMDA) administration in the mouse. Injection volumes and treatment options can be found in Table 18. Groups 7 and 8 were added to test a higher concentration of MK-801. The tissues for bioanalysis were snap frozen whole instead of being homogenized. The methods of adding IBMX to whole blood were established and clarified. This study was conducted in wild type mice (Mus musculus, C57BL/6).
Following euthanasia, eyes of elected animals were processed for histological or immunological examination. The ODs of animal 519 (Group 5) and 629 (Group 6) were noted to have a very small lens, blood in the retina, and the eye was filled with a gel-like substance. […] For Groups 1 and 2, immediately following euthanasia, selected eyes were collected into 10% neutral buffered formalin. The eyes were placed in 70% ethanol the following day. The eyes were then processed to paraffin blocks for sectioning. Sagittal sections of each eye (5 μm thickness) were prepared for all animals. At least 3 slides containing a ribbon of approximately 5 sections were collected sequentially. The optic nerve was included in the sectioning. The slides were stained for hematoxylin and eosin (H&E) and examined using light microscopy. Retinal ganglion cells (RGC) were counted (Table 19 and FIG. 9C).

[3] = tested on: TUJ-1+ and cone arrestin+ cells; test: NMDA excitotoxicity mouse model: immunohistochemistry (TUJ-1, cone arrestin); format: in vivo, C57BL/6); conditions: Groups 1 and 2, Day 7, qualitative
Protocol: All eyes designated for immunohistochemistry (IHC) were enucleated, the approximate site of injection was marked, and eyes were fixed at 4° C. in 4% paraformaldehyde in separately labeled vials overnight. Eyes were then transferred into 0.1M phosphate buffer (PB), brought through a sequential sucrose gradient (10-30%, 1 hour each) followed by embedding in OCT medium and freezing on dry ice.
Negative controls were performed for the staining cocktail by utilizing only the secondary antibody. Five slides spanning the retina for each eye were stained. Two pictures per retinal cross-section—one at or near the injection site and one from a central region—were taken using an Olympus Bx63 upright fluorescent microscope and cellSens software. […] All groups had clear cone arrestin staining with some TUJ-1+ cells observed (FIG. 12B). No further staining or analysis was performed on cross-sections as the staining was not an informative endpoint.

[4] = tested on: NIH3T3 cells (cGMP secreted); test: EC50 for CNP-Fc constructs, cGMP ELISA of NIH3T3 supernatant; format: cell-based; conditions: NIH3T3, 30 minutes, 1.8 mM IBMX, cGMP secreted by the cells; FIG. 25B
Protocol: EC50 for CNP-Fc described herein were measured by ELISA. 2.5E+05 NIH3T3 cells/well were plated. […] After 30 minutes, supernatant was collected for cGMP determined via ELISA. FIG. 25A illustrates a standard curve of cGMP.

[5] = tested on: intraocular pressure (IOP); test: Rat partial optic nerve transection (pONT) model: intraocular pressure (Tonolab tonometry); format: in vivo, rat (Dark Agouti)
Protocol: (§1) Using an experimental rat model of partial optic nerve transection (pONT), effects of Adeno-associated virus (AAV) CNP peptide (AAV-P) and protein Fc fusion (AAV-FP) on: retinal ganglion cell (RGC) apoptosis/stress in vivo was assessed using detection of apoptosing retinal cells (DARC) imaging; intraocular inflammation in vivo using Optical Coherence Tomography (OCT) imaging; intraocular pressure (IOP) in vivo using Tonolab tonometry; RGC survival histologically using immunohistochemistry on retinal whole mounts; and retinal microglial activity histologically using immunohistochemistry on retinal whole mounts.
(§2) In total, seventy-two male Dark Agouti (DA) rats aged 8-10 weeks were used in this study. The seventy-two animals were randomly divided into 3 categories.
(§3) Intravitreal injections (IVT, 4 μL) were given under general anesthesia (GA), according to the categories, and administered to the left eye (pONT eye) only once using a 34-gauge Hamilton needle at day 0 after BL imaging. pONT was performed at week 3 in Categories 1 and 2. In Category 3, pONT was performed soon after baseline imaging.
Partial optic nerve transection (pONT) surgery was performed under GA at week 3 in categories 1 and 2. […]
IOP. […] Ten IOP readings were collected from each eye of each animal at each time point.
IOP measurements were performed three times a week at weeks 1, 2, and 4. DARC spots on in vivo images were automatically counted by an algorithm developed and validated in the Cordeiro lab. […] RBPMS^+ RGCs in retinal whole mounts were automatically counted and analyzed by a recently developed and validated algorithm in the Cordeiro lab. […] The morphology of microglia in retinal whole mounts was automatically analyzed by a recently developed and validated machine learning approach in the Cordeiro lab.
IOP analysis in the both Fc4-CNP36 (FP) and AAV treatment. […] The IOP data was analyzed by subtracting OD (the right eye) from OS (the left eye) in each animal at each time point. […] FIG. 16A illustrates animal IOP monitored during the course of the study. […]

[6] = tested on: apoptosing retinal cells (RGC apoptosis); test: Rat pONT model: DARC imaging of RGC apoptosis; format: in vivo, rat (Dark Agouti)
Protocol: as §1, §2, §3
Partial optic nerve transection (pONT) surgery was performed under GA at week 3 in categories 1 and 2. In category 3, pONT surgery was performed on day 0 after BL imaging. […]
DARC/OCT. under GA, DARC/OCT imaging was conducted at baseline (BL), weeks 1, 2, and 4 in categories 1 and 2. pONT was performed at week 3. […] Briefly, fluorescently labelled annexin 776 (6 mg/mL, 40 μL) was […] administrated 2 hours before DARC imaging and then assessed with a confocal scanning laser ophthalmoscope (cSLO). […]
IOP measurements were performed three times a week at weeks 1, 2, and 4. DARC spots on in vivo images were automatically counted by an algorithm developed and validated in the Cordeiro lab. […] RBPMS^+ RGCs in retinal whole mounts were automatically counted and analyzed by a recently developed and validated algorithm in the Cordeiro lab. […] The morphology of microglia in retinal whole mounts was automatically analyzed by a recently developed and validated machine learning approach in the Cordeiro lab. […]

[7] = tested on: retinal ganglion cells (RGC); test: Rat pONT model: RGC survival, RBPMS+ RGCs in retinal whole mounts; format: in vivo, rat (Dark Agouti)
[8] = Rat pONT model: ELISA of Fc4-CNP36 / CNP36 in ocular homogenate and serum; conditions: after IVT of FP protein, terminal samples; FIG. 18
Protocol: Make a mixture of RIPA and the protease inhibitor was prepared by adding one tablet of protease inhibitor in 10 mL of RIPA buffer. Ocular tissue was measured for the amount of buffer needed. For every 1 mg of tissue, 10 μL of buffer was added. The tube containing the tissue was sonicated for 20 seconds on ice followed by 20 seconds of rest on ice. The sonication and chilling on ice was repeated two more times making 3 cycles in total.
After complete homogenization, the tubes were placed on an orbital shaker in cold room for two hours. After two hours, the tubes were centrifuged for five minutes at 13,000 rpm. The supernatants were collected and stored store at −80° C.
Animals were culled at week 4 in categories 1 and 2, and at week 1 in category 3. Before culling, a blood sample (at least 2 mL) was collected by cardiac puncture under the terminal procedure, centrifuged to collect serum, and stored at −80° C.
The remaining three blocks (blocks 4-6) of animals from each category (36 rats in total) were used for protein analysis. After culling, both eyes from each animal were enucleated and snap-frozen with liquid nitrogen, cryogenically homogenized with mortar and pestle and stored at −80° C. until protein analysis.
A serial dilution of CNP-Fc can be used in the assay. The detection range of CNP-Fc concentration in this assay can be from 0.78 to 50 ng/mL. […]

C[C@]12N[C@H](Cc3ccccc31)c1ccccc12 [MK-801]
RGC protection by positive control ([1]; 100 μM MK-801): fully rescued the NMDA RGC loss phenotype
RGC count, retinal Flatmount (Groups 1 and 2) ([1]; Group 2 ODs, NMDA + MK-801 co-injection IVT Day 0, DAPI and TUJ-1): 9,000±500 cells/mm2
RGC count, retinal Flatmount (Groups 3-8) ([1]; Group 8 ODs, NMDA + 100 μM MK-801 co-injection IVT Day 0, DAPI): 12,000±300 cells/mm2
P, RGC count NMDA+MK-801-treated (Group 8) versus NMDA-treated (Group 7 OD) eyes ([1]; one-way ANOVA, Dunnett, MK-801 100 μM): < 0.0001
mean RGC count, Group 2 versus Group 1 ([2]; H&E histopathology, ODs and OSs): no differences in the mean RGC count
RGC #/HPF (400X) ([2]; L eye (OS, control eye, no NMDA)): RGC #/HPF (400X) = 37; also recorded: RGC #/HPF (400X) = 35; also recorded: RGC #/HPF (400X) = 55; also recorded: RGC #/HPF (400X) = 38
RGC #/HPF (400X) ([2]; R eye (OD, experimental eye: NMDA + MK-801)): RGC #/HPF (400X) = 41; also recorded: RGC #/HPF (400X) = 31
number of TUJ-1+ and cone arrestin+ cells between groups [3]: did not appear to be a difference

AMI263: purified fusion protein Fc4-(G4S)4-CNP36 (IgG4 Fc), SEQ ID NO: 135
EC50 values (rank order) [4]: CNP-22 ≡Fc4-CNP36>Aflibercept-Fc4-CNP36>Fc1-CNP36>>Fc4-CNP22
effect on IOP ([5]; IVT 2, 20 and 80 μg/eye of affinity purified FP): significant effect on IOP reduction
dose at which IOP reduction reached maximal ([5]; IVT, range 2-80 μg/eye): 2 μg/eye
p, reduction in the IOP ([5]; all FP concentrations (2, 20, 80 μg/eye IVT), Day 1 compared to baseline (Day 0) or Day 7 after pONT): < 0.01
p, DARC count FP (High) versus AAV-Negative ([6]; 80 μg/eye IVT): 0.0078
DARC count, FP conditions ([6]; FP 2, 20, 80 μg/eye IVT, baseline subtracted, listed as FP): lowest DARC count; also recorded: dose-dependent effect
DARC count at highest FP dose ([6]; FP (H) = 80 μg/eye IVT, listed as FP): complete inhibition of DARC formation; also recorded: significant reduction compared to Sham control
RGC counts versus FP dose ([7]; FP 2, 20, 80 μg/eye IVT, FIG. 17B): increased with dose increase
RGC counts in eyes after treatment ([7]; summary): RGC counts increased
FP4-CNP36 levels in treated eyes (OS) [8]: correlated to the dose amount

Source: US20250099622A1, “COMPOSITIONS AND METHODS FOR EXPRESSING THERAPEUTICS” (priority 2022, published 2025)
